In patent US20200009130A1, “OCULAR DISTRIBUTION AND PHARMACOKINETICS OF LIFITEGRAST FORMULATIONS” (SARcode Bioscience Inc., priority 2016, published 2020):

How the values were obtained:
[1] = literature; cited from earlier work
[2] = in vivo; design: species or system New Zealand Red/White F1 Cross rabbits; conditions: female, New Zealand Red/White F1 Cross, rabbit
Procedure: In this experiment, female pigmented rabbits were assigned to receive one of two formulations of lifitegrast (#1 and #2) for 5 consecutive days. Each treatment group consisted of 25 rabbits. Animals received a single topical ocular dose of lifitegrast in each eye b.i.d.
(except on study day 5), approximately 12 hours apart (±1 hour), at a target dose level of 1.75 mg/eye/dose (35 μL/eye/dose). On study day 5, animals were dosed in the morning only. Treatment groups 1 and 2 were dosed on separate days. The in-life portion of the study was conducted in May 2014. This study adhered to the ARVO Statement for the Use of Animals in Ophthalmic and Vision Research and all procedures in the study were in compliance with the Animal Welfare Act Regulations (9 CFR 3).
Fifty female New Zealand Red/White F1 Cross rabbits from Covance Research Products (Denver, Pa., USA) were used in the study. The animals were acclimated to study conditions for 13 days before dose administration. At dosing, the animals weighed 3177 to 4271 g and were at least 6 months of age. Animals were housed individually, in suspended stainless steel cages, with food and water ad libitum, and under a 12-hour light/12-hour darkness cycle throughout the study. Animals were not randomized, but were assigned to animal numbers based on overall health and the results of predose ophthalmic examinations. Ophthalmic examinations were performed by a board-certified veterinary ophthalmologist once at baseline (pre dose) using a Kowa hand-held slit-lamp biomicroscope and an indirect ophthalmoscope with a condensing lens to ensure the study animals were healthy and had no ocular findings pre-treatment.
Formulations for the study that would be representative of the clinical material (confirmed by analytical data) were prepared at Covance Laboratories Inc. In each formulation, lifitegrast was added to dose vehicle while stirring, and pH adjusted with hydrochloric acid (HCl) and/or sodium hydroxide (NaOH). The formulation was stirred until a clear solution was obtained, filtered with a 0.22 μm filter (Millipore® Millex-GV, 0.22 μm, Durapore® PVDF) and stored at approximately 5° C. Analysis of the formulations was performed by Almac Sciences, Souderton, Pa., USA, and concentrations were measured as 49.4 and 49.3 mg/mL for formulations #1 and #2, respectively.
Formulation #1: dose vehicle consisted of sterile water for injection, sodium chloride, sodium phosphate dibasic anhydrous, sodium bicarbonate, ethylenediaminetetraacetic acid (EDTA), and sodium thiosulfate pentahydrate, adjusted to a pH of 7.30 with HCl. After addition of lifitegrast (50 mg/mL), the pH was adjusted to 6.90. […]

## CS(=O)(=O)c1cccc(C[C@H](NC(=O)c2c(Cl)cc3c(c2Cl)CCN(C(=O)c2ccc4ccoc4c2)C3)C(=O)O)c1 [lifitegrast, Lifitegrast]
[1]
  safety profile in clinical trials: generally well tolerated
[2]
  Cmax: ≤ 36 ng/g
  Tmax: 15 to 60 min
[2]; plasma t1/2
  half-life: 51 min
[2]; t1/2
  half-life: ~120 min
